# Source: US12297194B2, “N2-phenylpyrimidine-2,4-diamine compounds, and preparation methods and methods of use thereof” (BRIDGE BIOTHERAPEUTICS, INC., priority 2021, dated 2025)
# What was measured:
# Format in all cases: cell-based, murine
# Ba/F3 EGFR Wild-type = Ba/F3 EGFR Wild-type (Homo sapiens, UniProt P00533); test: CellTiter-Glo cell viability, Ba/F3 EGFR wild-type cells; details: 72 hours, read-out: Ba/F3 EGFR mutant cell (IC50, nM) WT
# Procedure, shortened: (§1)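 Steps: seed 2500 Ba/F3 cells per well; after 24 h add compound, 0, 0.3, 0.9, 2.7, 8.2, 24.7, 74.1, 222.2, 666.7, 2000 nM; incubate 72 h; equilibrate 30 min at ambient temperature; add CellTiter-Glo, shake 10 min; read luminescence; derive IC50.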
# [1] = molecular target: Ba/F3 EGFR L858R/C797S mutants (Homo sapiens, UniProt P00533, C797S/L858R, cells depend on it); test: CellTiter-Glo cell viability, Ba/F3 EGFR L858R/C797S cells; details: 72 hours, read-out: Ba/F3 EGFR mutant cell (IC50, nM) L/C
# Procedure, shortened: as §1
# [2] = molecular target: Ba/F3 EGFR L858R/T790M/C797S mutants (Homo sapiens, UniProt P00533, T790M/C797S/L858R, cells depend on it); test: CellTiter-Glo cell viability, Ba/F3 EGFR L858R/T790M/C797S cells; details: 72 hours, read-out: Ba/F3 EGFR mutant cell (IC50, nM) L/T/C
# Procedure, shortened: as §1
# [3] = molecular target: Ba/F3 EGFR Del19/T790M mutants (Homo sapiens, UniProt P00533, T790M, cells depend on it, form not given); test: CellTiter-Glo cell viability, Ba/F3 EGFR Del19/T790M cells; details: 72 hours, read-out: Ba/F3 EGFR mutant cell (IC50, nM) D/T
# Procedure, shortened: as §1
# [4] = molecular target: Ba/F3 EGFR Del19/C797S mutants (Homo sapiens, UniProt P00533, C797S, cells depend on it, form not given); test: CellTiter-Glo cell viability, Ba/F3 EGFR Del19/C797S cells; details: 72 hours, read-out: Ba/F3 EGFR mutant cell (IC50, nM) D/C
# Procedure, shortened: as §1
# [5] = molecular target: Ba/F3 EGFR Del19/T790M/C797S mutants (Homo sapiens, UniProt P00533, T790M/C797S, cells depend on it, form not given); test: CellTiter-Glo cell viability, Ba/F3 EGFR Del19/T790M/C797S cells; details: 72 hours, read-out: Ba/F3 EGFR mutant cell (IC50, nM) D/T/C
# Procedure, shortened: as §1
# Ba/F3 EGFR L858R/T790M/C797S mutants, sequence (P00533 whole entry T790M/C797S/L858R): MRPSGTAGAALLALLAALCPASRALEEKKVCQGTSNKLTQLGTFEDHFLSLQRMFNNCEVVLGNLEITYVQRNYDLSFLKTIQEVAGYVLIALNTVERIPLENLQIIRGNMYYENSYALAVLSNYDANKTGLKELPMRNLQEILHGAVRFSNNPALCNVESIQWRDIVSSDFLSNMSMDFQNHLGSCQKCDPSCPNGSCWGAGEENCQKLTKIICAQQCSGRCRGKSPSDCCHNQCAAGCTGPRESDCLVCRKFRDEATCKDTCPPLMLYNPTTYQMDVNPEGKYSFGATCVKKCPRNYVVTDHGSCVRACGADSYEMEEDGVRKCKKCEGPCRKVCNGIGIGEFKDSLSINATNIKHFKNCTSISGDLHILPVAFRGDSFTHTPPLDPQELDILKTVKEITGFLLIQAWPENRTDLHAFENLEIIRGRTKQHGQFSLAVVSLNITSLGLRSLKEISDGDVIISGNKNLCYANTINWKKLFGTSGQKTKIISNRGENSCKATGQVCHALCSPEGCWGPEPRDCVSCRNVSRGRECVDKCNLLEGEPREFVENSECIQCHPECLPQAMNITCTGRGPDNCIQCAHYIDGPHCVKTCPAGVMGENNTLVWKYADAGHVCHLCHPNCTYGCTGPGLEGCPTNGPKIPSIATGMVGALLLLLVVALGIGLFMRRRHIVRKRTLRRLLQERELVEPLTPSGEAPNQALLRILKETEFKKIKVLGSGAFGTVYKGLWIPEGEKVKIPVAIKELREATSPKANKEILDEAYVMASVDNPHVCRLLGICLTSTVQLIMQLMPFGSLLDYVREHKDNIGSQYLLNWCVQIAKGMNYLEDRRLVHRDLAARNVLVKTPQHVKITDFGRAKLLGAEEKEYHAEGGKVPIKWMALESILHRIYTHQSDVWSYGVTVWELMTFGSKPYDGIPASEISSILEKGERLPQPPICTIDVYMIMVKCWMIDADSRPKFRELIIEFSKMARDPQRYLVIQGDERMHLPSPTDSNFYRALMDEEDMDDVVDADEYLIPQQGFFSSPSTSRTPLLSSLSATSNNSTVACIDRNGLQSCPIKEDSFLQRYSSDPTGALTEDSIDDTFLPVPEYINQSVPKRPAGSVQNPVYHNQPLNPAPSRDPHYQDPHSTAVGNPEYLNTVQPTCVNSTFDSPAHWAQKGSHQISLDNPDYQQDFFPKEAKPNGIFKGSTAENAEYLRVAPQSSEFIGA
# Ba/F3 EGFR Del19/C797S mutants, sequence (P00533 with tags, fused parts or gaps DEL746-750/C797S, form open): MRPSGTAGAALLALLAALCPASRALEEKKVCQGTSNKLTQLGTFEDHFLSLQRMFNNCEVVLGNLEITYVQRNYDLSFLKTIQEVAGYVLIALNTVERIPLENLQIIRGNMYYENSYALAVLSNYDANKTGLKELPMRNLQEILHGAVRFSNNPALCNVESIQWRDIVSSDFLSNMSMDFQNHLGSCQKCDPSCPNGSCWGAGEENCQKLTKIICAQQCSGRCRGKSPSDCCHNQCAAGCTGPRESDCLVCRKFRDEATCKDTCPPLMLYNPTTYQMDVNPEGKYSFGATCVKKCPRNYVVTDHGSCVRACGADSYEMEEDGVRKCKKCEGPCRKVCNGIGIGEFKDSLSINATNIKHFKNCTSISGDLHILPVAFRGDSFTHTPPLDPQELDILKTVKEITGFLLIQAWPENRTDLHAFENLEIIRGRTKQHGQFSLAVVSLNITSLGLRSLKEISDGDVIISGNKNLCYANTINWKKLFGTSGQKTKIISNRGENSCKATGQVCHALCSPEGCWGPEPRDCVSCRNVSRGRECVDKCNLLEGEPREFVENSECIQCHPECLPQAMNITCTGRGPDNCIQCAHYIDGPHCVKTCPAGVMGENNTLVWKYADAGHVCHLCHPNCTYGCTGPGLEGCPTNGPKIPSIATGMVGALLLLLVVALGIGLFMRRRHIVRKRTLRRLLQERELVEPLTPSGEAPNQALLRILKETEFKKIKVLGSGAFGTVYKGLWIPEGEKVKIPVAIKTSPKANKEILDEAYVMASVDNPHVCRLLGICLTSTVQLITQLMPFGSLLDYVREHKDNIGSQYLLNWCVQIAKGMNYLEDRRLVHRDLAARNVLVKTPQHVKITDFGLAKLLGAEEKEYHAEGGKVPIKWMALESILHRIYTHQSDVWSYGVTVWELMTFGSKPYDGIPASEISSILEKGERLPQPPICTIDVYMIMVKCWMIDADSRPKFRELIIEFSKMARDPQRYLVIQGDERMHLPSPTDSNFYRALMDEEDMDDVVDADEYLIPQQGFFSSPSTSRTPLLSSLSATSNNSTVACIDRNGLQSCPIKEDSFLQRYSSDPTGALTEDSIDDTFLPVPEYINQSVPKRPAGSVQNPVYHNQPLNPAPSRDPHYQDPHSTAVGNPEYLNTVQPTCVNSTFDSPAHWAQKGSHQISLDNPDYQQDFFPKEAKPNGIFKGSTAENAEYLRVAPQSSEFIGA
# Ba/F3 EGFR L858R/C797S mutants, sequence (P00533 whole entry C797S/L858R): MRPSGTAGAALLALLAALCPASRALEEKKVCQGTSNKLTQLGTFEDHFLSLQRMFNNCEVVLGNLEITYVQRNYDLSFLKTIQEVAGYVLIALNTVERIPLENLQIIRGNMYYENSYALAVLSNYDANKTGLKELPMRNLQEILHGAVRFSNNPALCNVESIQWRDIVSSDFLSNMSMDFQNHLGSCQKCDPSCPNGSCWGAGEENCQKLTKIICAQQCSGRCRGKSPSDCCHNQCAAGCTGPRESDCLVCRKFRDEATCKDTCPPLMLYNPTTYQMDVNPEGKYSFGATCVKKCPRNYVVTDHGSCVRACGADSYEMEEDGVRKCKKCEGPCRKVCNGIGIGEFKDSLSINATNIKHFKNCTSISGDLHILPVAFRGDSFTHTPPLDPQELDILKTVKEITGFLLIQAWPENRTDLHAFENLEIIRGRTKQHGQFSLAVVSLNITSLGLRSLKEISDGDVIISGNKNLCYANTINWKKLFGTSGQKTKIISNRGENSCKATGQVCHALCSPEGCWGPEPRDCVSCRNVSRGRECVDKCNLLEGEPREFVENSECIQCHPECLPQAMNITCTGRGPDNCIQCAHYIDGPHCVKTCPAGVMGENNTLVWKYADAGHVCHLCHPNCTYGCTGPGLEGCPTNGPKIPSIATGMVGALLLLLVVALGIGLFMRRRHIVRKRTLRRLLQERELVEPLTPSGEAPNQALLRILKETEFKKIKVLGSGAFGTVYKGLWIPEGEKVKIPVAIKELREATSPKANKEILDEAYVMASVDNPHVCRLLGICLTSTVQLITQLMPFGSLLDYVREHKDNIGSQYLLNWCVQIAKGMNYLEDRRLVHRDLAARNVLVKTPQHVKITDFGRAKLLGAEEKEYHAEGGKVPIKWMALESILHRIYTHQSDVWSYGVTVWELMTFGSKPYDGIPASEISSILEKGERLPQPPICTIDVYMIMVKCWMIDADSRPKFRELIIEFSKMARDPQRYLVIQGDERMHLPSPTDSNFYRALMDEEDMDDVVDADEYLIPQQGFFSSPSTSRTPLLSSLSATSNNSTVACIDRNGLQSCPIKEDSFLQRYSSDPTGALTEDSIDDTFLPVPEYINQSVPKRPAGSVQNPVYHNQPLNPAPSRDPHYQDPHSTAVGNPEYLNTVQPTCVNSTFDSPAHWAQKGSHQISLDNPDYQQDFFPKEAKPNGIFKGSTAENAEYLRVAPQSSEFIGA
# Ba/F3 EGFR Del19/T790M/C797S mutants, sequence (P00533 with tags, fused parts or gaps DEL746-750/T790M/C797S, form open): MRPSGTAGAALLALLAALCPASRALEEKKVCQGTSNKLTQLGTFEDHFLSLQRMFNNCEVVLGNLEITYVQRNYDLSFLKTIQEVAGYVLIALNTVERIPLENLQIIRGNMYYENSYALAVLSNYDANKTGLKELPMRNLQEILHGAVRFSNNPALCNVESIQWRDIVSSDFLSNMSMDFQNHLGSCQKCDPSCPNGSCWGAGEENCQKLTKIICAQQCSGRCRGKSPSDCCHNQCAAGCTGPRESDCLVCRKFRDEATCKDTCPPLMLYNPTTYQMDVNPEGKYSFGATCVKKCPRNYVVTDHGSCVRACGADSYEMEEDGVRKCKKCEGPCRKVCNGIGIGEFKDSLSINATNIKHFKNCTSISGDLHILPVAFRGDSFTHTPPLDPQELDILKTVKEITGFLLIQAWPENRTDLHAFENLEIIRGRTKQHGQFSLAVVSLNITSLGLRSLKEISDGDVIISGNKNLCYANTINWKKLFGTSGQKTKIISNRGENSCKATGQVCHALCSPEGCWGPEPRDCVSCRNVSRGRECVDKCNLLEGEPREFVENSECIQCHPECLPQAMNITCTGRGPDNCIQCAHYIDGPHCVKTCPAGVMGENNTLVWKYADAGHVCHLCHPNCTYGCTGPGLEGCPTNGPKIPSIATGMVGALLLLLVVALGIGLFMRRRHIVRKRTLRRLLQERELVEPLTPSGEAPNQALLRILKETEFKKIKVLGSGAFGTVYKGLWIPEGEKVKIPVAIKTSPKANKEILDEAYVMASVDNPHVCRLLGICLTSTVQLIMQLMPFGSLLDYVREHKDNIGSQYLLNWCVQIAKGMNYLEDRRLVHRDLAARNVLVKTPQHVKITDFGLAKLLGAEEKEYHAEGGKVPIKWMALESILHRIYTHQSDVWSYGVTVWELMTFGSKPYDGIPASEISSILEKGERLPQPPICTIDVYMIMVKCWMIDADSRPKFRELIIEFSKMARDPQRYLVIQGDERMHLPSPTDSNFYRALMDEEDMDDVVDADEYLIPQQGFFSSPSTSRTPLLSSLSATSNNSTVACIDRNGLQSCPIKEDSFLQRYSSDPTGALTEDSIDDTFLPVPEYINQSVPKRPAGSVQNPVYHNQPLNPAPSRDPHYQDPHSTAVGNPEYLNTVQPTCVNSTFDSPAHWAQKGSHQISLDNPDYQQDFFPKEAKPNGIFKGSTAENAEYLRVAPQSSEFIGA
SMILES,GI50 (Ba/F3 EGFR Wild-type) [nM],GI50 [1] [nM],GI50 [2] [nM],GI50 [3] [nM],GI50 [4] [nM],GI50 [5] [nM]
"COc1cc(N2CCC(N3CCOCC3)CC2)c(C)cc1Nc1ncc(Cl)c(Nc2ccc3nccnc3c2NS(C)(=O)=O)n1 [Example A31, N-(6-((5-chloro-2-((2-methoxy-5-methyl-4-(4-morpholinopiperidin-1-yl)phenyl)amino)pyrimidin-4-yl)amino)quinoxalin-5-yl)methanesulfonamide]",223,79,43,39,50,131
"COc1cc(C2CCNCC2)ccc1Nc1ncc(Br)c(Nc2ccc3nccnc3c2NS(C)(=O)=O)n1 [Example B18, N-(6-((5-bromo-2-((2-methoxy-4-(piperidin-4-yl)phenyl)amino)pyrimidin-4-yl)amino)quinoxalin-5-yl)methanesulfonamide]",> 2000,1020,1440,598,725,818
